Biological target: T1, human PAH with the R408W mutation (Homo sapiens, UniProt P00439, R408W)
T1 construct: expressed in transfected cells
T1 sequence (P00439 1-452 R408W): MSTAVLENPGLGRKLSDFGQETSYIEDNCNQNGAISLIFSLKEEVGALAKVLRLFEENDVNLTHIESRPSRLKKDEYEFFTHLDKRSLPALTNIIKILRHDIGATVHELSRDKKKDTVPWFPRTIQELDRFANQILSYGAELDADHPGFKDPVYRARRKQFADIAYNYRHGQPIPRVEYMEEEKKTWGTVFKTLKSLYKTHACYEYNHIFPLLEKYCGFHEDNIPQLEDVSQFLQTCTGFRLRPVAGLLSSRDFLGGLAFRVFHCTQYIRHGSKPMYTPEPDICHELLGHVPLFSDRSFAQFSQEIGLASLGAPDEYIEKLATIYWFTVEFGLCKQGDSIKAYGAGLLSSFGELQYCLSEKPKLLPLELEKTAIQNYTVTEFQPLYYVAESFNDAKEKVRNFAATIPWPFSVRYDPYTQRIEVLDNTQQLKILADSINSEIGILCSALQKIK
Experiment: Cell Based Phenylalanine Flux Assay
Settings: A375 cells expressing human R408W PAH; 24 hrs compound incubation; 13C-Tyrosine by LC-MS; average where tested multiple times; read-out: AC50

SMILES | AC50 [nM]
C[C@H]1CN(C(=O)c2ocnc2C2CC2)[C@@H](c2nc3c(F)cccc3s2)c2nc[nH]c21 [Example 1607, (4-cyclopropyloxazol-5-yl)((4R,7S)-4-(4-fluorobenzo[d]thiazol-2-yl)-7-methyl-6,7-dihydro-1H-imidazo[4,5-c]pyridin-5(4H)-yl)methanone] | 1000 to 5000
C[C@H]1CN(C(=O)c2ocnc2C2CC2)[C@H](c2nc3c(F)cccc3s2)c2nc[nH]c21 [Example 1608, (4-cyclopropyloxazol-5-yl)((4S,7S)-4-(4-fluorobenzo[d]thiazol-2-yl)-7-methyl-6,7-dihydro-1H-imidazo[4,5-c]pyridin-5(4H)-yl)methanone] | 500 to 1000
CN(C)c1nnc(C(=O)N2CCc3[nH]cnc3[C@H]2c2nc3ccccc3s2)o1 [Example 1609] | < 500
CN(C)c1nnc(C(=O)N2CCc3[nH]cnc3[C@@H]2c2nc3ccccc3s2)o1 [Example 1610, (R)-(4-(benzo[d]thiazol-2-yl)-6,7-dihydro-1H-imidazo[4,5-c]pyridin-5(4H)-yl)(5-(dimethylamino)-1,3,4-oxadiazol-2-yl)methanone] | 1000 to 5000
O=C(c1oc(-c2ccccn2)nc1C(F)(F)F)N1CCc2[nH]cnc2[C@H]1c1nc2c(F)cccc2s1 [Example 1611, (S)-(4-(4-fluorobenzo[d]thiazol-2-yl)-6,7-dihydro-1H-imidazo[4,5-c]pyridin-5(4H)-yl)(2-(pyridin-2-yl)-4-(trifluoromethyl)oxazol-5-yl)methanone] | < 500
O=C(c1oc(-c2ccccn2)nc1C(F)(F)F)N1CCc2[nH]cnc2[C@@H]1c1nc2c(F)cccc2s1 [Example 1612, (R)-(4-(4-fluorobenzo[d]thiazol-2-yl)-6,7-dihydro-1H-imidazo[4,5-c]pyridin-5(4H)-yl)(2-(pyridin-2-yl)-4-(trifluoromethyl)oxazol-5-yl)methanone] | < 500
O=C(c1oc(C2CC2)nc1C(F)F)N1CCc2[nH]cnc2[C@H]1c1nc2ccccc2s1 [Example 1621] | < 500
O=C(c1oc(C2CC2)nc1C(F)F)N1CCc2[nH]cnc2[C@@H]1c1nc2ccccc2s1 [Example 1622, (R)-(4-(benzo[d]thiazol-2-yl)-6,7-dihydro-1H-imidazo[4,5-c]pyridin-5(4H)-yl)(2-cyclopropyl-4-(difluoromethyl)oxazol-5-yl)methanone] | < 500
CN1CCN(c2nc(C(F)(F)F)c(C(=O)N3CCc4[nH]cnc4[C@H]3c3nc4c(F)cccc4s3)o2)CC1 [Example 1623, (S)-(4-(4-fluorobenzo[d]thiazol-2-yl)-6,7-dihydro-1H-imidazo[4,5-c]pyridin-5(4H)-yl)(2-(4-methylpiperazin-1-yl)-4-(trifluoromethyl)oxazol-5-yl)methanone] | < 500
CN1CCN(c2nc(C(F)(F)F)c(C(=O)N3CCc4[nH]cnc4[C@@H]3c3nc4c(F)cccc4s3)o2)CC1 [Example 1624, (R)-(4-(4-fluorobenzo[d]thiazol-2-yl)-6,7-dihydro-1H-imidazo[4,5-c]pyridin-5(4H)-yl)(2-(4-methylpiperazin-1-yl)-4-(trifluoromethyl)oxazol-5-yl)methanone] | < 500
O=C(c1oc(CCC2CC2)nc1C(F)(F)F)N1CCc2[nH]cnc2[C@H]1c1nc2c(F)cccc2s1 [Example 1625] | < 500
O=C(c1oc(CCC2CC2)nc1C(F)(F)F)N1CCc2[nH]cnc2[C@@H]1c1nc2c(F)cccc2s1 [Example 1626, (R)-(2-(2-cyclopropylethyl)-4-(trifluoromethyl)oxazol-5-yl)(4-(4-fluorobenzo[d]thiazol-2-yl)-6,7-dihydro-1H-imidazo[4,5-c]pyridin-5(4H)-yl)methanone] | < 500
O=C(c1oc(CN2CCOCC2)nc1C(F)(F)F)N1CCc2[nH]cnc2[C@H]1c1nc2ccccc2s1 [Example 1627] | < 500
O=C(c1oc(CN2CCOCC2)nc1C(F)(F)F)N1CCc2[nH]cnc2[C@@H]1c1nc2ccccc2s1 [Example 1628, (R)-(4-(benzo[d]thiazol-2-yl)-6,7-dihydro-1H-imidazo[4,5-c]pyridin-5(4H)-yl)(2-(morpholinomethyl)-4-(trifluoromethyl)oxazol-5-yl)methanone] | < 500
O=C(N1CCc2[nH]cnc2[C@H]1c1nc2ccccc2s1)C1(c2cnco2)CC1 [Example 1629] | 500 to 1000
O=C(c1sc(C2CC2)nc1Cl)N1CCc2[nH]cnc2[C@H]1c1nc2c(F)cccc2s1 [Example 1631] | 500 to 1000
O=C(c1sc(C2CC2)nc1Cl)N1CCc2[nH]cnc2[C@@H]1c1nc2c(F)cccc2s1 [Example 1632, (R)-(4-chloro-2-cyclopropylthiazol-5-yl)(4-(4-fluorobenzo[d]thiazol-2-yl)-6,7-dihydro-1H-imidazo[4,5-c]pyridin-5(4H)-yl)methanone] | 1000 to 5000
O=C(c1sc(N2CCOCC2)nc1C(F)(F)F)N1CCc2[nH]cnc2[C@H]1c1nc2c(F)cccc2s1 [Example 1633, (S)-(4-(4-fluorobenzo[d]thiazol-2-yl)-6,7-dihydro-1H-imidazo[4,5-c]pyridin-5(4H)-yl)(2-morpholino-4-(trifluoromethyl)thiazol-5-yl)methanone] | < 500
O=C(c1sc(N2CCOCC2)nc1C(F)(F)F)N1CCc2[nH]cnc2[C@@H]1c1nc2c(F)cccc2s1 [Example 1634, (R)-(4-(4-fluorobenzo[d]thiazol-2-yl)-6,7-dihydro-1H-imidazo[4,5-c]pyridin-5(4H)-yl)(2-morpholino-4-(trifluoromethyl)thiazol-5-yl)methanone] | 500 to 1000

Further lines, results first:

AC50 [nM] | SMILES
500 to 1000 | O=C(c1nnc(-c2ccccn2)o1)N1CCc2[nH]cnc2[C@@H]1c1nc2c(F)cccc2s1 [Example 1601, (R)-(4-(4-fluorobenzo[d]thiazol-2-yl)-6,7-dihydro-1H-imidazo[4,5-c]pyridin-5(4H)-yl)(5-(pyridin-2-yl)-1,3,4-oxadiazol-2-yl)methanone]
< 500 | O=C(c1nnc(-c2ccccn2)o1)N1CCc2[nH]cnc2[C@H]1c1nc2c(F)cccc2s1 [Example 1602, (S)-(4-(4-fluorobenzo[d]thiazol-2-yl)-6,7-dihydro-1H-imidazo[4,5-c]pyridin-5(4H)-yl)(5-(pyridin-2-yl)-1,3,4-oxadiazol-2-yl)methanone]
1000 to 5000 | Cn1nccc1C(=O)N1CCc2[nH]cnc2[C@H]1c1nc2c(F)cccc2s1 [Example 1603]
> 5000 | Cn1nccc1C(=O)N1CCc2[nH]cnc2[C@@H]1c1nc2c(F)cccc2s1 [Example 1604, (R)-(4-(4-fluorobenzo[d]thiazol-2-yl)-6,7-dihydro-1H-imidazo[4,5-c]pyridin-5(4H)-yl)(1-methyl-1H-pyrazol-5-yl)methanone]
500 to 1000 | O=C(c1ccnn1-c1ccccc1)N1CCc2[nH]cnc2[C@H]1c1nc2c(F)cccc2s1 [Example 1605]
1000 to 5000 | O=C(c1ccnn1-c1ccccc1)N1CCc2[nH]cnc2[C@@H]1c1nc2c(F)cccc2s1 [Example 1606, (R)-(4-(4-fluorobenzo[d]thiazol-2-yl)-6,7-dihydro-1H-imidazo[4,5-c]pyridin-5(4H)-yl)(1-phenyl-1H-pyrazol-5-yl)methanone]
< 500 | Cn1cc(C(=O)N2CCc3[nH]cnc3[C@H]2c2nc3c(F)cccc3s2)c(C(F)(F)F)n1 [Example 1613, (S)-(4-(4-fluorobenzo[d]thiazol-2-yl)-6,7-dihydro-1H-imidazo[4,5-c]pyridin-5(4H)-yl)(1-methyl-3-(trifluoromethyl)-1H-pyrazol-4-yl)methanone]
< 500 | Cn1cc(C(=O)N2CCc3[nH]cnc3[C@@H]2c2nc3c(F)cccc3s2)c(C(F)(F)F)n1 [Example 1614, (R)-(4-(4-fluorobenzo[d]thiazol-2-yl)-6,7-dihydro-1H-imidazo[4,5-c]pyridin-5(4H)-yl)(1-methyl-3-(trifluoromethyl)-1H-pyrazol-4-yl)methanone]
< 500 | O=C(c1ocnc1C(F)F)N1CCc2[nH]cnc2[C@H]1c1nc2c(F)cccc2s1 [Example 1615]
500 to 1000 | O=C(c1ocnc1C(F)F)N1CCc2[nH]cnc2[C@@H]1c1nc2c(F)cccc2s1 [Example 1616, (R)-(4-(difluoromethyl)oxazol-5-yl)(4-(4-fluorobenzo[d]thiazol-2-yl)-6,7-dihydro-1H-imidazo[4,5-c]pyridin-5(4H)-yl)methanone]
500 to 1000 | CN(C)Cc1ccc2c(C(=O)N3CCc4[nH]cnc4[C@H]3c3nc4c(F)cccc4s3)cnn2c1 [Example 1619, (S)-(6-((dimethylamino)methyl)pyrazolo[1,5-a]pyridin-3-yl)(4-(4-fluorobenzo[d]thiazol-2-yl)-6,7-dihydro-1H-imidazo[4,5-c]pyridin-5(4H)-yl)methanone]
> 5000 | CN(C)Cc1ccc2c(C(=O)N3CCc4[nH]cnc4[C@@H]3c3nc4c(F)cccc4s3)cnn2c1 [Example 1620, (R)-(6-((dimethylamino)methyl)pyrazolo[1,5-a]pyridin-3-yl)(4-(4-fluorobenzo[d]thiazol-2-yl)-6,7-dihydro-1H-imidazo[4,5-c]pyridin-5(4H)-yl)methanone]
< 500 | O=C(c1conc1C(F)(F)F)N1CCc2[nH]cnc2[C@H]1c1nc2c(F)cccc2s1 [Example 1635, (S)-(4-(4-fluorobenzo[d]thiazol-2-yl)-6,7-dihydro-1H-imidazo[4,5-c]pyridin-5(4H)-yl)(3-(trifluoromethyl)isoxazol-4-yl)methanone]
